Experimental data published in patent US20050163841A1, “Compositions and dosage forms for enhanced absorption of 3-amino-n-butyl-phosphinic acid” (priority 2003, published 2005).
Where two headings read alike, the source gives them in different places.

Columns and labels:
[1] = Human pharmacokinetics of 3-aminopropyl-n-butyl-phosphinic acid (Gleitner 1); type: in vivo, Humans; conditions: implied from urinary excretion after oral administration
[2] = cited from earlier work; for dose-corrected AUC: read from FIG. 4 of Gleitner 1
[3] = system: patients suffering from Mild Cognitive Impairment (MCI); conditions: 600 mg tid; cited from earlier work

CCCCP(=O)(O)CCCN [3-aminopropyl-n-butyl-phosphinic acid]
absorption through the oral route [1]: 38%
dose-corrected AUC ([2]; 600 mg dose): 40 μmol·h/(L·mmol)
dose-corrected AUC ([2]; 2100 mg dose): 20 μmol·h/(L·mmol)
reduction of drug systemic availability after food intake ([2]; after food intake): 30%
cumulative urinary excretion rate ([2]; within 24 hours of i.v. administration): 99.5+/−6.4 % of the dose
cumulative urinary excretion rate ([2]; within 24 hours of oral administration): 38+/−13 % of the dose
cognition in patients with Mild Cognitive Impairment [3]: showed improvements in multiple cognitive domains
